From patent US20230021562A1, “[…] D[…]-1 INHIBITORS” (priority 2019, published 2023)
Several values for one entry are separate records, joined by “and”; a condition that tells them apart may be missing. Identical values can stand only once. Like-named read-outs stand apart in the source and are kept apart here.

Assays:
[1] = molecular target: Myeloid Cell Leukemia 1 (Mcl-1) (Homo sapiens, UniProt Q07820); assay: biochemical; assay type: binding; conditions: HTRF Ki (nM)
MOLP8 cell line = assay: MOLP8 CellEvent Caspase-3/7 Green live-cell IncuCyte apoptosis assay; assay type: cell-based, human; conditions: averaged values
Protocol: (§1) MCL-1 is a regulator of apoptosis and is highly over-expressed in tumor cells that escape cell death. The assay evaluates the cellular potency of small-molecule compounds targeting regulators of the apoptosis pathway, primarily MCL-1, Bfl-1, Bcl-2, and other proteins of the Bcl-2 family. Protein-protein inhibitors disrupting the interaction of anti-apoptotic regulators with BH3-domain proteins initiate apoptosis.
Activation of the apoptotic pathway was measured using the CellEvent™ Caspase-3/7 Green ReadyProbes™ Reagent (Thermo Fisher C10423, C10723). This assay produces a green fluorescent stain in cells that enter the apoptosis pathway. CellEvent® Caspase-3/7 Green reagent is a four amino acid peptide (DEVD) conjugated to a nucleic acid-binding dye that is non-fluorescent when not bound to DNA. The CellEvent® Caspase-3/7 Green reagent is intrinsically non-fluorescent, as the DEVD peptide inhibits binding of the dye to DNA. Upon activation of caspase-3/7 in apoptotic cells, the DEVD peptide is cleaved and the free dye can bind DNA, generating a bright green fluorescence. The activation of Caspase-3 and Caspase-7 is downstream of inhibition of MCL-1 or other apoptosis inhibiting proteins in cell lines that are dependent on them.
The live-cell readout on the IncuCyte permits tracking over time of the Caspase activation. […] The IncuCyte readout also allows one to normalize for cell number, as the suspension cells are hard to distribute evenly.
Signals were measured every 2 h for a duration of 22 h. The ratio of the Caspase mask to the Confluence mask, per image, as raw data, was calculated and the kinetic trace for every well was exported to Genedata Screener for analysis.
In Genedata Screener values for 6 h, 12 h, and 22 h from the kinetic traces were extracted. The values were normalized against negative controls (untreated cells). A standard dose-response analysis was performed on the normalized data.
The following data was reported at each of the following three aforementioned time points: (a) The dose-response curve, (b) The qAC50 and qAC50 Mode, and (c) Max Activity.
Cells were maintained in culture medium containing 10% Heat Inactivated (HI) FBS, 2 mM L-Glutamine and 50 μg/mL Gentamycin phenol red free RPMI-1640. Cells were split at 0.4 million/mL twice a week.
On Day 1, plates containing individual wells with test compounds at 10 mM concentration, 150 nL per well. The final concentrations range from […] compound (and no compound control) and compounds were thawed at room temperature for 1 hour. 25 μl of prewarmed medium was added into each well by multidrop (column 1, 3-22, 24), followed by addition of DMSO control (0.6% DMSO) in column 2. The plate was sealed using Breathe-Easy® sealing membrane and shaken for 30 min at room temperature to dissolve the test compound(s) in medium. The plate was then kept in the incubator for 1 hour at 37° C., 5% CO2.
MOLP8 cells in medium at […] (20000/50 μl final in assay) were prepared with CellEvent™ Caspase-3/7 Green Detection Reagent at 4 μM (2 μM final in assay). Once prepared, the cells were added to the test compound plate in an amount of 20000 and the plate was immediately placed in the IncuCyte and imaging started using following settings: 10× objective, 2 s exposure time in green channel, interval of 2 h, acquisition stopped after 22 h.
For analysis in IncuCyte, a Basic Analysis protocol was defined to calculate the “confluence” and “caspase” areas from the “Phase” and “green” images, respectively, as follows: (a) Confluence: Segmentation Adjustment 1, Hole Fill 0, Adjust Size −2, No filters (b) Caspase: Top-Hat segmentation, Radius 10, Threshold 0.3 GCU, Edge Split On with sensitivity 0, Hole Fill 0, Adjust Size 1, and filter on a minimum Area of 20 μm^2. The analyzer is trained on a sufficient number of positive and negative control wells, as well as compound treated wells, verifying that the “confluence” layer detects both live and dead (condensed) cells. […]

[2] = test system: MOLP-8 human multiple myeloma cell line; assay: MOLP8 Caspase-Glo 3/7 luminescent assay; assay type: cell-based
Text: as §1
The Caspase-Glo® 3/7 Assay is a luminescent assay that measures caspase-3 and -7 activities in purified enzyme preparations or cultures of adherent or suspension cells. The assay provides a proluminescent caspase-3/7 substrate, which contains the tetrapeptide sequence DEVD. This substrate is cleaved to release aminoluciferin, a substrate of luciferase used in the production of light. Addition of the single Caspase-Glo® 3/7 Reagent in an “add-mix-measure” format results in cell lysis, followed by caspase cleavage of the substrate and generation of a “glow-type” luminescent signal.
This assay uses the MOLP-8 human multiple myeloma cell line, which is sensitive to MCL-1 inhibition.
Cell cultures were maintained between 0.2 and 2.0×10^6 cells/mL. The cells were harvested by collection in 50 mL conical tubes. The cells were then pelleted at 500 g for 5 mins before removing supernatant and resuspension in fresh pre-warmed culture medium. The cells were counted and diluted as needed.
The assay reagent was prepared by transferring the buffer solution to the substrate vial and mixing. The solution may be stored for up to 1 week at 4° C. with negligible loss of signal.
Compounds were delivered in assay-ready plates (Proxiplate) and stored at −20° C.
Assays always include 1 reference compound plate containing reference compounds. The plates were spotted with 40 nL of compounds (0.5% DMSO final in cells; serial dilution; 30 μM highest conc. 1/3 dilution, 10 doses, duplicates). The compounds were used at room temperature and 4 μL of pre-warmed media was added to all wells except column 2 and 23. The negative control was prepared by adding 1% DMSO in media. The positive control was prepared by adding the appropriate positive control compound in final concentration of 60 μM in media. The plate was prepared by adding 4 μL negative control to column 23, 4 μL positive control to column 2 and 4 μL cell suspension to all wells in the plate. The plate with cells was then incubated at 37° C. for 2 hours. The assay signal reagent is the Caspase-Glo solution described above, and 8 μL was added to all wells. The plates were then sealed and measured after 30 minutes.
The activity of a test compound was calculated as percent change in apoptosis induction as follows: […]

[3] = read-out: MOLP8 Caspase 3/7 AC50 at 6 h, MOLP8 cells, 6 h
[4] = read-out: MOLP8 Caspase 3/7 AC50 at 12 h, MOLP8 cells, 12 h
[5] = read-out: MOLP8 Caspase 3/7 AC50 at 22 h, MOLP8 cells, 22 h
[6] = MOLP8 cells, 2 hours incubation; averaged over all runs on all batches; read-out: MOLP8 Caspase-Glo AC50
[7] = read-out: MOLP8 Caspase-Glo AC50; MOLP8 cells, 2 hours incubation; averaged over all runs on all batches
[8] = Homo sapiens, MOLP-8, 6 h, read-out: MOLP8 Caspase 3/7 AC50 at 6 h (μM), MOLP8 cells, 6 h
[9] = Homo sapiens, MOLP-8, 12 h, read-out: MOLP8 Caspase 3/7 AC50 at 12 h (μM), MOLP8 cells, 12 h
[10] = Homo sapiens, MOLP-8, 22 h, read-out: MOLP8 Caspase 3/7 AC50 at 22 h (μM), MOLP8 cells, 22 h

Chain of Myeloid Cell Leukemia 1 (Mcl-1) (Q07820 whole entry): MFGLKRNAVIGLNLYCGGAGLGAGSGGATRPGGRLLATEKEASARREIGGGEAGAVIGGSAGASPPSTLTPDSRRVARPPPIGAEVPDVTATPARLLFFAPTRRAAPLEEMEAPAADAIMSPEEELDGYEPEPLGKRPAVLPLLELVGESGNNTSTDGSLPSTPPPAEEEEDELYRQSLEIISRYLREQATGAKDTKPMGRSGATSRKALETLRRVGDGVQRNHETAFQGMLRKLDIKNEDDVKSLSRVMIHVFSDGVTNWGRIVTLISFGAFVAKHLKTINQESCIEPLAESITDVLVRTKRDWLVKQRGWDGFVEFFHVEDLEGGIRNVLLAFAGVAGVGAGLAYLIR

Compound | Ki [1] | AC50 (MOLP8 cell line; [3]) | AC50 (MOLP8 cell line; [4]) | AC50 (MOLP8 cell line; [5]) | AC50 [2, 6] | AC50 [2, 7] | AC50 (MOLP8 cell line; [8]) | AC50 (MOLP8 cell line; [9]) | AC50 (MOLP8 cell line; [10])
Cc1c2c(nn1CCN1CCOCC1)CN(C)Cc1cc(n(C)n1)CSc1cc(c3ccccc3c1)OCCCc1c(C(=O)O)n(C)c3c-2c(Cl)ccc13 (single isomer, unassigned) [Compound 13] | 0.05 nM and 0.04 nM | 0.15 µM | 0.15 µM | 0.17 µM | 75 nM |  |  |  | 
Cc1c2c(nn1CCN1CCOCC1)CN(C)Cc1cc(n(C)n1)CSc1cc(c3ccccc3c1)OCCCc1c(C(=O)O)n(C)c3c-2c(Cl)ccc13 (single isomer, unassigned) [Compound 14] | 2.85 nM and 2.53 nM | 7.67 µM | 7.16 µM | 7.33 µM | 3680 nM |  |  |  | 
Cc1nn(CC2CCOCC2)c2c1-c1c(Cl)ccc3c(c(C(=O)O)n(C)c13)CCCOc1cc(cc3ccccc13)SCc1cc(nn1C)CN(C)C2 (single isomer, unassigned) [Compound 15] | 0.09 nM and 0.03 nM | 0.23 µM | 0.23 µM | 0.19 µM | 67 nM |  |  |  | 
Cc1c2c(nn1CC1CCOCC1)CN(C)Cc1cc(n(C)n1)CSc1cc(c3ccccc3c1)OCCCc1c(C(=O)O)n(C)c3c-2c(Cl)ccc13 (single isomer, unassigned) [Compound 16] | 0.06 nM and 0.05 nM | 0.15 µM | 0.14 µM | 0.15 µM | 49 nM |  |  |  | 
Cc1c2c(nn1CC1CCOCC1)CN(C)Cc1cc(n(C)n1)CSc1cc(c3ccccc3c1)OCCCc1c(C(=O)O)n(C)c3c-2c(Cl)ccc13 (single isomer, unassigned) [Compound 17] | 0.41 nM and 0.66 nM | 1.23 µM | 1.24 µM | 1.22 µM | 564 nM |  |  |  | 
Cc1nn(CC2CCOCC2)c2c1-c1c(Cl)ccc3c(c(C(=O)O)n(C)c13)CCCOc1cc(cc3ccccc13)SCc1cc(nn1C)CN(C)C2 (single isomer, unassigned) [Compound 18] | 2.46 nM and 3.31 nM | 8.32 µM | 8.41 µM | 7.85 µM | 3760 nM |  |  |  | 
COCCn1nc(C)c2c1CN(C)Cc1cc(n(C)n1)CSc1cc(c3ccccc3c1)OCCCc1c(C(=O)O)n(C)c3c-2c(Cl)ccc13 (single isomer, unassigned) [Compound 25] | 0.04 nM | 0.09 µM | 0.1 µM | 0.11 µM |  |  |  |  | 
Cc1c2c(nn1CCCN1CCOCC1)CN(C)Cc1cc(n(C)n1)CSc1cc(c3ccccc3c1)OCCCc1c(C(=O)O)n(C)c3c-2c(Cl)ccc13 (single isomer, unassigned) [Compound 35] | 0.04 nM | 0.15 µM | 0.15 µM | 0.15 µM |  |  |  |  | 
Cc1c2c(nn1CCO)CN(C)Cc1cc(n(C)n1)CSc1cc(c3ccccc3c1)OCCCc1c(C(=O)O)n(C)c3c-2c(Cl)ccc13 (single isomer, unassigned) [Compound 37] | 0.06 nM and 0.04 nM | 0.71 µM | 0.62 µM | 0.56 µM |  |  |  |  | 
Cc1nn(CCO)c2c1-c1c(Cl)ccc3c(c(C(=O)O)n(C)c13)CCCOc1cc(cc3ccccc13)SCc1cc(nn1C)CN(C)C2 (single isomer, unassigned) [Compound 39] | 0.06 nM and 0.05 nM | 0.65 µM | 0.85 µM | 0.65 µM |  |  |  |  | 
CCn1nc2cc1CSc1cc(c3ccccc3c1)OCCCc1c(C(=O)O)n(C)c3c(c(Cl)ccc13)-c1c(nn(C)c1C)CSC2 (single isomer, unassigned) [Compound 43] | 0.04 nM |  |  |  |  | 63 nM |  |  | 
CCn1nc2cc1CSc1cc(c3ccccc3c1)OCCCc1c(C(=O)O)n(C)c3c(c(Cl)ccc13)-c1c(nn(C)c1C)CSC2 (single isomer, unassigned) [Compound 44] | 4.06 nM |  |  |  |  | 3560 nM |  |  | 
CCn1nc2cc1CSCc1nn(C)c(C)c1-c1c(Cl)ccc3c(c(C(=O)O)n(C)c13)CCCOc1cc(cc3ccccc13)SC2 [Compound 1] | 0.15 nM |  |  |  |  |  | 0.13 µM | 0.13 µM | 0.11 µM
Cc1c2c(nn1C)CSCc1cc(nn1CCN(C)C)CSc1cc(c3ccccc3c1)OCCCc1c(C(=O)O)n(C)c3c-2c(Cl)ccc13 [Compound 4] | 0.09 nM and 0.1 nM |  |  |  |  |  | 0.22 µM | 0.25 µM | 0.23 µM
Cc1c2c(nn1C)CSCc1cc(n(CCN(C)C)n1)CSc1cc(c3ccccc3c1)OCCCc1c(C(=O)O)n(C)c3c-2c(Cl)ccc13 [Compound 5] | 0.06 nM and 0.08 nM |  |  |  |  |  | 0.08 µM | 0.08 µM | 0.07 µM
Cc1c2c(nn1C)CSCc1cc(n(CCO)n1)CSc1cc(c3ccccc3c1)OCCCc1c(C(=O)O)n(C)c3c-2c(Cl)ccc13 [Compound 7] | < 0.094 nM |  |  |  |  |  | 0.47 µM | 0.45 µM | 0.46 µM
Cc1c2c(nn1C)CSCc1cc(nn1CCN1CCOCC1)CSc1cc(c3ccccc3c1)OCCCc1c(C(=O)O)n(C)c3c-2c(Cl)ccc13 [Compound 8] | 0.13 nM and 0.08 nM |  |  |  |  |  | 0.24 µM | 0.24 µM | 0.25 µM
Cc1c2c(nn1C)CSCc1cc(n(CCN3CCOCC3)n1)CSc1cc(c3ccccc3c1)OCCCc1c(C(=O)O)n(C)c3c-2c(Cl)ccc13 [Compound 9] | 0.05 nM |  |  |  |  |  | 0.1 µM | 0.097 µM | 0.1 µM
Cc1c2c(nn1C)CSCc1cc(n(CC3CCOCC3)n1)CSc1cc(c3ccccc3c1)OCCCc1c(C(=O)O)n(C)c3c-2c(Cl)ccc13 [Compound 12] | 0.05 nM and 0.08 nM |  |  |  |  |  | 0.18 µM | 0.18 µM | 0.13 µM
